Values after ≈ are worked out from the molar mass of the structure shown. Residues, ends and D or L forms follow the SMILES beside them. No end group written: not given here. *: point of attachment. Myristoyl = CCCCCCCCCCCCCC(=O)*
Tests used:
[1] = previous findings by Lu et al.; cited from earlier work
From the text: From the best fitted surface tension parameters (listed in Table S2), the area per molecule (APM) could be calculated from eq 4 for each amphiphile at its respective CAC. […] This is in line with the previous findings by Lu et al., which stated that APMs of C10TAB, C12TAB, C14TAB, C16TAB, and C18TAB adsorbed on the surface of water were 55 ± 3, 50 ± 2, 48 ± 3, 43 ± 3, and 43 ± 3 Å^2, respectively.[29]−[33] Each lipopeptide molecule occupied around 79 ± 10 Å^2 at ...

[2] = tested on: C. albicans SC5314 (ATCC MYA-2876); type: cell-based, Candida albicans; conditions: SC5314, 48 h
Method: (§1) E. coli (ATCC 25922), S. aureus (ATCC 6538), and C. albicans SC5314 (ATCC MYA-2876) were purchased from the American Type Culture Collection (ATCC). The two bacterial strains, E. coli and S. aureus, were cultured in Mueller Hinton broth at 37 °C; while the yeast strain, C. albicans, was grown in RPMI 1640 medium at 30 °C. The microdilution method was employed to determine MICs of the amphiphiles against the microorganism strains listed above.[21] Solutions of lipopeptides and biocides were half-diluted serially in 96-well plates using PBS buffer containing 137 mM NaCl, 2.7 mM KCl, 8.1 mM Na2HPO4, and 1.9 mM KH2PO4 for E. coli and S. aureus and using RPMI 1640 for C. albicans. Overnight incubations of the strains, in each respective growth medium, were then inoculated into each well, giving final concentrations of 10^6 CFU/mL for E. coli and S. aureus and 10^5 CFU/mL for C. albicans. Culture media without microorganisms and amphiphiles were employed as positive controls, while fresh microorganism cultures without amphiphiles were used as negative controls. Each plate has both positive controls and negative controls. The plates were then incubated at an appropriate temperature (stated above) for 24 h for the bacterial strains and 48 h for the yeast strain. MICs of each sample were first determined by eye. A more quantitative analysis was carried out by measuring optical densities at 600 nm (OD600) of each well using a Sunrise absorbance microplate reader (Tecan Group Ltd.). Inhibitory ratios (IRs) of each sample at a given concentration against a specific strain, denoted as IRi, were calculated by IRi = (OD600,negative control – OD600,i)/(OD600,negative control – OD600,positive control) × 100%. All experiments were repeated at least three times with each group containing three replicates. To better analyze concentration–IR relationships, sigmoidal function fittings were employed to generate the best fitted dose response curve for each situation.

hRBCs = type: cell-based, human
Method: hRBCs were purchased from Rockland Immunochemical Inc. Hemolytic assays were performed in 96-well plates in an environment of PBS, as previously described.[13],[23] Amphiphiles were half diluted serially at first, resulting in 100 μL of solution in each well, and mixed subsequently with 100 μL of 4% hRBC suspension. Wells filled by PBS mixed with hRBC were employed as positive controls, while hRBCs with added 0.1% Triton X-100 were negative controls. After incubating at 37 °C for 1 h, the plates were centrifuged at 1000 times gravity for 5 min. The supernatants in each well, which contained the released hemoglobin, were transferred to another plate, and their optical density at 450 nm (OD450) was measured using an absorbance microplate reader. The percentage of hemolysis H for each sample at a certain concentration c was obtained by Hc = (OD450,c – OD450,positive control)/(OD450,negative control – OD450,positive control) × 100%. Figures for percentage leakage against concentration for each sample were plotted to determine the approximate range of 50% hemolysis, and the relevant concentration was the half maximal effective concentration (EC50) of the sample. Each experiment was repeated at least three times with each containing three replicates. The dose–response curves were again obtained by applying sigmoidal functional fits to obtain the EC50 values.

[3] = tested on: Human dermal fibroblasts cells (adult, HDFa cells); type: cell-based; conditions: 24 h
Method: (§2) Human dermal fibroblasts cells (adult, HDFa cells) and NIH 3T3 fibroblasts cells (3T3 cells, ATCC-1658) were cultured at 37 °C in Dulbecco’s modified Eagle medium (ATCC30-2002, added with 10% heat-inactivated fetal bovine serum) with a continuous supply of CO2 at a 5% level. MTT assays were carried out to examine in vitro cytotoxicity of the amphiphiles.[22] Cells were first inoculated in flat-bottom 96-well plates, rendering 8 × 10^3 cells in 100 μL of medium for each well, and were incubated for 24 h. The cells were mixed with 100 μL of a solution of an amphiphile with 2 times the selected concentrations. Cells were then exposed to the solutions of each amphiphile for 24 h, after which 10 μL of 5 mg/mL MTT solution was added into each well, and the reaction was allowed for 2 h. 200 μL of dimethyl sulfoxide was then added to each well to dissolve the transformed MTT formazan. Light absorbance of the samples was measured using a Thermo Scientific Varioskan LUX at 570 nm. Cell samples 100% viable and 100% dead were employed as the positive control and negative control, respectively. Dose response curves were obtained by applying sigmoidal function fittings to obtain 50% effective concentrations (EC50).

[4] = tested on: NIH 3T3 fibroblasts cells (3T3 cells, ATCC-1658); type: cell-based; conditions: 24 h
Method: as §2

E. coli (ATCC 25922) = type: cell-based, Escherichia coli; conditions: ATCC 25922, 24 h
Method: as §1

S. aureus (ATCC 6538) = type: cell-based, Staphylococcus aureus; conditions: ATCC 6538, 24 h
Method: as §1

[5] = Analytical RP-HPLC retention time as measure of hydrophobicity; type: physicochemical; conditions: gradient of eluents
Method: Lipopeptide C14KKGGII was synthesized in the form of acyl chain hydrogenated h-C14KKGGII and acyl chain deuterated d-C14KKGGII. The lipopeptide samples were prepared using a Liberty Blue automated microwave peptide synthesizer, where the standard Fmoc solid-phase strategy was followed. Dimethylformamide (DMF) was used as the solvent during the whole process. Rink-amide resin was employed as a loading anchor to synthesize C-terminal amidated lipopeptides and was swelled for 5 min in DMF before synthesis. After the removal of Fmoc groups on resins, amino acids (Fmoc-Gly-OH, Fmoc-Ile-OH, and Fmoc-Lys-OH in this study) were coupled to the solid phase in succession from the C-terminal to the N-terminal, assisted by the addition of ethyl 2-cyano-2-(hydroxyimino)acetate (OXYMA) and N,N′-diisopropylcarbodiimide (DIC) at 90 °C for 4 min. Fmoc protecting groups on amino acids were removed before further linking using 20% piperidine in DMF. Hydrogenated or deuterated myristic acid was added onto the chain in the last step using the same method. A cleavage mixture of trifluoroacetic acid (TFA), water, and tri-isopropylsilane (TIS) (94/4/2, v/v/v) was employed for the reaction with lipopeptide-loaded resins for 3 h at ambient temperature, removing the side chain protecting groups on the amino acids and releasing lipopeptides from the resin beads. […]

CCCCCCCCCC[N+](C)(C)C.[Br-] [C10TAB]
APM adsorbed on the surface of water [1]: 55 ± 3 Å^2

CCCCCCCCCCCCCC(=O)N[C@@H](CCCCN)C(=O)N[C@@H](CCCCN)C(=O)NCC(=O)NCC(=O)N[C@H](C(=O)N[C@H](C(N)=O)[C@@H](C)CC)[C@@H](C)CC [C14KKGGII, CH3(CH2)12CO-Lys-Lys-Gly-Gly-Ile-Ile-NH2] (Myristoyl-KKGGII-NH2)
MIC, C. albicans [2]: 12 ± 2 µM (≈ 9.89 µg/mL) | concentration at which hemolysis starts (hRBCs): 16 µM | EC50 (hRBCs; 1 h): 180 ± 30 µM | EC50 [3]: 110 ± 30 µM | EC50 [4]: 66 ± 6 µM | MIC, E. coli (E. coli (ATCC 25922)): 16 ± 6 µM (≈ 13.2 µg/mL) | MIC, S. aureus (S. aureus (ATCC 6538)): 9 ± 3 µM (≈ 7.42 µg/mL)

CCCCCCCCCCCCCCCC[N+](C)(C)C.[Br-] [C16TAB]
APM adsorbed on the surface of water [1]: 43 ± 3 Å^2

CCCCCCCCCCCCCCCCCC[N+](C)(C)C.[Br-] [C18TAB]
APM adsorbed on the surface of water [1]: 43 ± 3 Å^2

CD3(CD2)12CO-KKGGII-NH2 [dC14KKGGII, acyl chain deuterated C14KKGGII]
RP-HPLC retention time (comparison of hydrophobicity) [5]: 25.6 min

KKGGII-NH2 [KKGGII, KKGGII-NH2]
RP-HPLC retention time (comparison of hydrophobicity) [5]: 15.4 min
